Data taken from patent publication US4999363A, “Tricyclic compounds” (priority 1988, dated 1991).

What was measured:
[1] = tested on: thrombus formation on cotton thread; assay: Antithrombotic activity: thrombus formation on cotton thread in extracorporeal circulation path; format: in vivo, Wistar male rats; conditions: oral, rat, 2 hours prior, mean ± standard error, control 25.9 ± 1.2
Description: Effect of a test compound on thrombus formation on cotton thread which was kept in an extracorporeal circulation path for the artery and vein in anesthesized rats was examined in a manner similar to the method of Smith et al. [Br. J. Pharmacol., 77, 29 (1982)].
Wistar male rats weighing 250 to 400 g were anesthesized by intraperitoneal administration of sodium pentobarbital at a dose of 30 mg/kg and an extracorporeal circulation path made of a polyethylene tube having a length of 30 cm extending from the right carotid artery to the left jugular vein was installed. Cotton thread (No. 30) having a length of 5.5 cm was inserted into the circulation path and a weight of thrombus formed on the cotton thread during blood perfusion for 15 minutes was measured. Similar operations were performed twice and the total weight of thrombus formed by the two blood perfusions was shown as the weight of thrombus. […]

[2] = tested on: dd strain male mice; assay: Acute toxicity test (MLD, mortality for seven days); format: in vivo; conditions: minimum lethal dose, 7 days; for Acute Toxicity (MLD) ip: intraperitoneal
Description: Using three dd strain male mice weighing 20±1 g, a test compound was orally (po; 300 mg/kg) or intraperitoneally (ip; 100 mg/kg) administered. MLD (the minimum lethal dose) was determined by observing the mortality for seven days after administration.

[3] = target: T1, TXA2 /prostaglandin H2 receptor (Cavia porcellus, UniProt A0A286Y4I8); assay: Anti-aggregatory effect: inhibition of platelet aggregation induced by U-46619 (TXA2-antagonizing action); format: cell-based, guinea pig (Hartley strain); conditions: minimum concentration inhibiting aggregation by 30% or more; U-46619 0.5-1 μM; guinea pig PRP
T1 construct: platelet rich plasma (PRP) was obtained; endogenous in cells; host or cells: guinea pig (Hartley) platelets in platelet rich plasma
T1 sequence (A0A286Y4I8 1-347): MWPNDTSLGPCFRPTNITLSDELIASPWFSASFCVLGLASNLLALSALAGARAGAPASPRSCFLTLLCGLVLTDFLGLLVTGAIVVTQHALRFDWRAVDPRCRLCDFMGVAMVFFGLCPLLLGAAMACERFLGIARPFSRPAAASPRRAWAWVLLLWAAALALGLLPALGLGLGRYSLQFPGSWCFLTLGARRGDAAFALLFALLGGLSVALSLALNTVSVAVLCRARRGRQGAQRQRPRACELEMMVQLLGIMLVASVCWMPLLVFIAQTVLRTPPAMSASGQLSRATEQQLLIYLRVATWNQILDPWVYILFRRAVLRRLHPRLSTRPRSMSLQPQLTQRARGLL
Description: TEST ON ANTI A[…] (TXA2 -AN[…])
Using guinea pig platelet, influence of the compounds on platelet aggregation induced by U-46619 (9,11-dideoxy-9α,11a-methanoepoxyprostaglandin F2α; manufactured by Cayman Chemical Co., Ltd.) which was a TXA2 /prostaglandin H2 receptor stimulant was examined.
Male guinea pig (Hartley strain; body weight, 300 to 600 g) was anesthesized by intraperitoneal administration of sodium pentobarbital (30 mg/kg) and blood was collected from the descending aorta of the abdomen with a 1/10 volume of 3.8% trisodium citrate. By centrifugation (KC-70: manufactured by Kubota Co., Ltd.) at 800 rpm for 15 minutes, platelet rich plasma (PRP) was obtained, Platelet aggregation induced by U-46619 (0.5-1 μM) was determined by photometry [Born, G.V.R. et al., Nature (London), 194, 927-929 (1962)]. A test compound was pretreated for 3 minutes and the ability to inhibit aggregation was determined. The minimum concentration which inhibits platelet aggregation by 30% or more was defined as the minimum effective concentration (MEC) of the test compound.

[4] = tested on: TXA2 biosynthesis; assay: TXA2 biosynthesis inhibitory test (bovine platelet microsome, TXB2 by radioimmunoassay); format: biochemical; conditions: in 10 μM
Description: TXA2 BIOSYNTHESIS INHIBITORY TEST
After a mixture of 70 μl (40 μg of protein, 100 mM Tris-hydrochloridebuffer, pH 7.4) of bovine platelet microsome and 10 μl (10% methanol-containing 100 mM Tris-hydrochloride buffer) of a test compound solution was settled at 0° C. for 5 minutes, 20 μl of prostaglandin H2 solution (0.1 nmol, in Tris-hydrochloride buffer described above containing 20% acetone) as substrate was added to the mixture. Five minutes after, 2.9 ml of stopping solution [100 mM, Trishydrochloride buffer containing 0.1 μM of OKY-1581; Tromb. Res. 23, 145 (1981)] was added to stop the reaction.
TXA2 was unstable in the buffer solution, and nonenzymatically converted to TXB2. An amount of thromboxane B2 (TXB2) formed in the reaction solution was determined by radioimmunoassay [F. A. Fitzpatrick et al., Methods in Enzymology, 86, 286 (1982)]. An inhibition rate of the test compound was calculated according to the following equation. [formula]
The amount of TXB2 formed in control refers to a value obtained when the same reaction was carried out, using a solvent containing no test compound.
The amount of TXB2 formed in blank refers to a value obtained when the reaction was carried out in the system in which the stopping solution was added prior to adding substrate.

Row | Compound | Weight of Thrombus ([1]; 30 mg/kg) | Weight of Thrombus ([1]; 100 mg/kg, **P < 0.01) | Acute Toxicity (MLD) ip [2] | Acute Toxicity (MLD) po [2] | TXA2 Antagonizing Activity (MEC) [3] | TXA2 Biosynthesis Inhibitory Activity Inhibition Rate [4]
1 | O=C(O)COc1ccc(CCNS(=O)(=O)c2ccccc2)cc1 [BM13177] | 24.8 ± 1.8 mg | 18.9 ± 1.8 mg |  |  |  | 
2 | O=C(O)c1ccc2c(c1)C(SCc1cccnc1)c1ccccc1CO2 (stereo not drawn) [Compound 14b, 11-[(3-Pyridyl)methyl]thio-6,11-dihydrodibenz[b,e]oxepin-2-carboxylic acid] |  |  | > 100 mg/kg | > 300 mg/kg | 3 µg/mL | 100%
3 | O=C(O)c1ccc2c(c1)C(=NCc1cccnc1)c1ccccc1CO2 [Compound 25b, 11-[(3-Pyridyl)methyl]imino-6,11-dihydrodibenz[b,e]oxepin-2-carboxylic acid] |  |  | > 100 mg/kg | > 300 mg/kg | 1 µg/mL | 100%
4 | Cn1cnnc1SC/C=C1\c2ccccc2COc2ccc(C(=O)O)cc21 [Compound E-156b, (E)-11-[2-[(4-Methyl-4H-1,2,4-triazol-3-yl)thio]ethylidene]-6,11-dihydrodibenz[b,e]oxepin-2-carboxylic acid] |  |  | > 100 mg/kg | > 300 mg/kg | 1.0 µg/mL | -10%
5 | COc1cc2ncn(C/C=C3\c4ccccc4COc4ccc(C(=O)O)cc43)c2cc1OC [Compound E-101b, (E)-11-[2-(5,6-Dimethoxy-1-benzimidazolyl)ethylidene]-6,11-dihydrodibenz[b,e]oxepin-2-carboxylic acid] |  |  | > 100 mg/kg | > 300 mg/kg | 0.3 µg/mL | 17%
6 | O=C(O)c1ccc2c(c1)/C(=C/Cn1ccnc1)c1ccccc1CO2 [Compound E-37b', (E)-11-[2-(1-imidazolyl)ethylidene]-6,11-dihydrodibenz[b,e]oxepin-2-carboxylic acid 0.2 hydrate] |  |  | > 100 mg/kg | > 300 mg/kg | 3 µg/mL | 94%
7 | COc1ccc2ncn(C/C=C3\c4ccccc4COc4ccc(C(=O)O)cc43)c2c1 [Compound E-62b, (E)-11-[2-(6-Methoxy-1-benzimidazolyl)ethylidene]-6,11-dihydrodibenz[b,e]oxepin-2-carboxylic acid] |  |  |  |  | 1 µg/mL | 11%
8 | CN(C)CC/C=C1/c2ccccc2COc2ccc(CC(=O)O)cc21 [KW 4679, reference compound] |  |  | > 100 mg/kg | > 300 mg/kg | 30 µg/mL | 1%
9 | O=C(O)c1ccc2c(c1)C(NCc1cccnc1)c1ccccc1CO2 (stereo not drawn) [Compound 9c, 11-[(3-Pyridyl)methyl]amino-6,11-dihydrodibenz[b,e]oxepin-2-carboxylic acid] |  |  | > 100 mg/kg | > 300 mg/kg | 30 µg/mL | 100%
10 | O=C(O)Cc1ccc(CCNS(=O)(=O)c2ccc(Cl)cc2)cc1 [BM13505, reference compound] |  |  | > 100 mg/kg | > 300 mg/kg | 0.1 µg/mL | 8%
11 | COc1ccc2c(c1)ncn2C/C=C1\c2ccccc2COc2ccc(C(=O)O)cc21 [Compound E-61b, (E)-11-[2-(5-Methoxy-1-benzimidazolyl)ethylidene]-6,11-dihydrodibenz[b,e]oxepin-2-carboxylic acid] |  |  |  |  | 0.1 µg/mL | 1%
12 | C/C(=C\c1ccc(Cc2cccnc2)cc1)C(=O)O [OKY 1581, reference compound] |  |  | > 100 mg/kg | > 300 mg/kg | 30 µg/mL | 100%
